In article PMC4139061, “Structural basis of nucleoside and nucleoside drug selectivity by concentrative nucleoside transporters” (eLife, 2014):
Values joined by “and” are separate entries in the source; they are usually repeats but may differ in a detail not shown here. Equal entries are not always repeated.

Legend:
[1] = target: T1, hCNT3 (Homo sapiens, UniProt Q9HAS3); test: two-electrode voltage-clamp of Na+ currents / total charge in Xenopus oocytes expressing hCNT3; type: cell-based
T1 sequence (Q9HAS3 1-691): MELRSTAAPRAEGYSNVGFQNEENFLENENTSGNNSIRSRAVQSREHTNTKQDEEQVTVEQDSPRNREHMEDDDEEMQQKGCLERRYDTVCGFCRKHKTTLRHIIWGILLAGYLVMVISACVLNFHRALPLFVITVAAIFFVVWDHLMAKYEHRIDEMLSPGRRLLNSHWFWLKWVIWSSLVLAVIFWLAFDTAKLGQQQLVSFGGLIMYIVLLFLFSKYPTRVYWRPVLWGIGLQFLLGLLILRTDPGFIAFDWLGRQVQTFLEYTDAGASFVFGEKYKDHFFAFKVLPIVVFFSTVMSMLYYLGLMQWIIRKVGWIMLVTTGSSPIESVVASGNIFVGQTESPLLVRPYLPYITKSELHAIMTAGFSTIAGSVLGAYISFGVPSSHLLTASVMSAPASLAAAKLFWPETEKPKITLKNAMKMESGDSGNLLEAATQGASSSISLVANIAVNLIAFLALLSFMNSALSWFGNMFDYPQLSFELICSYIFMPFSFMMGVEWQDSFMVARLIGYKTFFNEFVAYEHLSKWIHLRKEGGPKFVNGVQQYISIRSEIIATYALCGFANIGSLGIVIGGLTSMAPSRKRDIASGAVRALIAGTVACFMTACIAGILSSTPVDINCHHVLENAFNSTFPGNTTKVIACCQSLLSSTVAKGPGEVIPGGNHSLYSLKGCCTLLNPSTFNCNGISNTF
From the text: To detect nucleoside transport by hCNTs, we turned to two-electrode voltage-clamp electrophysiological recording. Because hCNTs are Na^+-nucleoside symporters, one can measure the current generated by the Na^+ transport that is coupled with nucleoside transport. We injected Xenopus oocytes with mRNA coding for each of the hCNTs and measured inward Na^+ currents elicited by the addition of different nucleosides to the extracellular side.
The genes coding for the three hCNTs and vcCNT were cloned into a pGEM-HE vector. Plasmids were linearized using either SphI or NheI, and mRNA was transcribed using the mMESSAGE mMACHINE T7 Transcription Kit (Ambion, Grand Island, NY). Defolliculated Xenopus laevis oocytes were purchased from Ecocyte Bioscience (Austin, TX). Individual oocytes were injected with 40 ng of mRNA using a 10-μl microdispenser (Drummond Scientific, Broomall, PA) fitted with a tapered glass pipette tip and incubated at 17 °C for 4–5 days in ND96 buffer (96 mM NaCl, 2 mM KCl, 1 mM MgCl2, 1.8 mM CaCl2, and 5 mM HEPES pH 7.5) with 0.1% penicillin and streptomycin before recording.
The oocyte-recording chamber was gravity-perfused with ND96 buffer at a rate of 2 ml/min. Membrane currents were measured using an Oocyte Clamp (OC-725C; Warner Instruments, Hamden, CT). Individual oocytes were penetrated with two microelectrodes filled with 3 M KCl (0.5–1.0 MΩ). All electrophysiological experiments were conducted at room temperature. The OC-725C Oocyte Clamp was computer-interfaced via an Axon Digidata 1550 and controlled by Axoscope software (Molecular Devices, Sunnyvale, CA). The current signals were filtered at 20 Hz and sampled at intervals of 20 ms. The signals were filtered at 0.5 Hz by use of pCLAMP 10.4 software for data presentation. […] Cells were discarded if resting membrane potentials were unstable or more positive than −30 mV. Oocyte membrane potentials were clamped at −90 mV for holding potentials to measure transporter-generated currents. All data are shown as means ± SEM.

[2] = target: vcCNT (Vibrio cholerae, UniProt Q9KPL5); test: biochemical; type: binding; conditions: for mAnisotropy: [pyrrolo-gemcitabine] 2.00 μM
Sequence of vcCNT (Q9KPL5 entry or part of it): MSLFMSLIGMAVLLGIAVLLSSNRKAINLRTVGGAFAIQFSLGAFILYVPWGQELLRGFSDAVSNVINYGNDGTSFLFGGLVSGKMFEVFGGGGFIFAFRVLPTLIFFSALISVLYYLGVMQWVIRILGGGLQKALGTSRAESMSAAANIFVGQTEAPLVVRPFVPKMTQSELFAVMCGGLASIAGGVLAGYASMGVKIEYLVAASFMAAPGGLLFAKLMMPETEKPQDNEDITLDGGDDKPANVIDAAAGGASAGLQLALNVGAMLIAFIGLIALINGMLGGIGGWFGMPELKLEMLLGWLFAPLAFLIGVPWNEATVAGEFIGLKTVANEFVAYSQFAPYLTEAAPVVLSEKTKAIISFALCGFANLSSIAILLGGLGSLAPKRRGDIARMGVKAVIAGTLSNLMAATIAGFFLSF

With `Cc1cc2cn([C@@H]3O[C@H](CO)[C@@H](O)C3(F)F)c(=O)nc2[nH]1` [pyrrolo-gemcitabine] the “Total charge transported, Mean” value ([1]; 200 μM nucleoside, hCNT3-expressing Xenopus oocytes, mean of Exp. 1-14) was 0.082 μC, the “Na+ current on addition of nucleoside” value ([1]; hCNT3-expressing oocytes, 200 μM) was “almost no effect” and the “Qgem/Qpyr-gem, Mean” value ([1]; ratio of total charge, 200 μM each, hCNT3, mean of Exp. 1-14) was 96.071. For the same molecule, the mAnisotropy ([2]; [vcCNT] 0 μM) was 44.1 and 33.7 and 35.1, the mAnisotropy ([2]; [vcCNT] 1.0 μM) was 45.4 and 36.3 and 43.5 and the mAnisotropy ([2]; [vcCNT] 2.5 μM) was 55.8 and 48.4 and 48.8. For the same molecule, the mAnisotropy ([2]; [vcCNT] 5.0 μM) was 72.7 and 68.7 and 59.5, the mAnisotropy ([2]; [vcCNT] 10 μM) was 92.3 and 80.0 and 79.5 and the mAnisotropy ([2]; [vcCNT] 25 μM) was 127.1 and 118.0 and 110.9. For the same molecule, the mAnisotropy ([2]; [vcCNT] 50 μM) was 153.7 and 139.6 and 136.3, the mAnisotropy ([2]; [vcCNT] 100 μM) was 173.8 and 165.0 and the mAnisotropy ([2]; [vcCNT] 200 μM) was 187.8 and 174.6. For the same molecule, the Kd ([2]; direct titration of fluorescent nucleoside with vcCNT, single-site model, mean ± SEM, read-out: KD) was 24 µM and 23.5 µM and the “decrease of KD relative to gemcitabine” value ([2]; vcCNT) was roughly 60 fold.
